From paper PMC5071857, “A unique peptide deformylase platform to rationally design and challenge novel active compounds” (Scientific Reports, 2016)
Read-outs that look alike come from different tables or passages of the source.

Tests used:
S. aureus SA113 = experiment: MIC, S. aureus SA113; assay type: cell-based; settings: Staphylococcus aureus
Description: (§1) Two E. coli strains, one B. subtilis strain, one S. aureus strain, one E. faecalis strain, one S. agalactiae strain and three Enterobacter aerogenes strains previously described were used. Briefly, AG100 was an E. coli wild type strain and AG100A its acrAB^- derivative. EA289 was a Kan^s derivative of an E. aerogenes multi-drug resistant (MDR) clinical isolate overexpressing AcrAB-TolC efflux pumps, and EA294 and EA298 its acrAB^- and tolC^- derivatives respectively. Strains were routinely grown at 37 °C on Luria-Bertani (LB) agar or in Mueller-Hinton II broth (MH), supplemented with kanamycine (50 μg.mL^−1) for AG100A, EA294 and EA298.
(§2) MIC values of antibiotics were determined by the microdilution method in liquid MH media in microplates in the absence or presence of chemosensitizers/modulators (e.g. PMBN, PAβN), as previously described. Permeabilization, blocking of efflux pumps, and isolates with different levels of porin or efflux expression were used to assess the involvement of the membrane barrier in antibiotic activity.
(§3) Susceptibilities were determined in 96-wells microplates with an inoculum of 2 × 10^5 cfu in 200 μL of MH broth containing two-fold serial dilutions of each antibiotics or compounds. Molecules were tested alone or in combination with other molecules in equimolar ratio. MICs were realized in the absence and in the presence of a membrane permeabilizer, the polymyxine B nonapeptide (PMBN) used at 51.2 mg/L (1/5 or 1/10 of its direct MIC previously determined). Actinonin and ciprofloxacin were used as internal antibiotic reference. […] Each test was systematically performed in triplicate. The average of three independent assays is presented in μg/mL in the respective tables.

SaPDF [1] = target: T1, SaPDF (Streptococcus agalactiae serotype III, UniProt Q8E378, S2A); experiment: biochemical; settings: SaPDF KI*app, PDFI pre-incubated with enzyme 10 min at 37 °C, started by 2 mM Fo-Met-Ala-Ser; 40 nM SaPDF
T1 construct: the recombinant protein contains all residues of the 204 amino acids mature protein; made in house; host or cells: E. coli Rosetta 2(DE3)pLysS

EcPDF = target: T2, EcPDF (Escherichia coli, UniProt P0A6K3); experiment: PDF inhibition, formate dehydrogenase-coupled spectrophotometric assay (EcPDF); assay type: biochemical; settings: for Ki: 10 nM EcPDF; for EcPDF KI/KI*app: enhancement potency (slow tight-binding)
T2 construct: made in house
Procedure: (§4) The formate released by the deformylation reaction is used by FDH to convert NAD in NADH, the production of which being measured over time at 340 nm and controlled temperature (37 °C). The 200 μL reaction mixture contained 50 mM HEPES-NaOH pH7.5, 12 mM NAD^+, 4.5 U/mL FDH, 1 mM NiCl2 and PDF enzyme (either 40 nM SaPDF or 10 nM EcPDF or 100 nM AtPDF1B) previously diluted in presence of 0.1 mg/mL BSA. The reaction was started by addition of 1–6 mM Fo-Met-Ala-Ser. Kinetics parameters (kcat, Km) were derived from iterative non-linear least square fits using the Michaelis-menten equation based on the experimental data (Sigma-Plot, Kinetics module).
(§5) 1/KI*app is the slope of the v0/vi curve in function of compound concentration, where v0 and vi are the initial reaction rates in absence and presence of compound, respectively.
(§6) Determination of KI values was performed with a slightly modified protocol: reaction was started by addition of enzyme instead of Fo-Met-Ala-Ser, the latter being directly added to the mixture containing increasing concentrations of each compound. No pre-incubation of enzyme in presence of compound was done. 1/KI is the slope of the v0/vi curve in function of compound concentration, where v0 and vi are the initial reaction rates in absence and presence of compound respectively.

E. coli AG100 = experiment: MIC by microdilution, E. coli AG100; assay type: cell-based; settings: 18 h at 37 °C, average of three assays; for MIC: Escherichia coli, AG100, without PMBN; for MIC AG100: with PMBN at 1/5 of its MIC
Description: as §1, §2, §3

AtPDF1B [2] = target: T3, AtPDF1B (Arabidopsis thaliana, UniProt Q9FUZ2); experiment: PDF inhibition, formate dehydrogenase-coupled spectrophotometric assay (AtPDF1B); assay type: biochemical; settings: for Ki: PDFI pre-incubated with enzyme 10 min at 37 °C, started by 2 mM Fo-Met-Ala-Ser, read-out: AtPDF1B KI*app; for Ki / IC50: 100 nM AtPDF1B; for AtPDF1B KI/KI*app: enhancement potency (slow tight-binding); for IC50: 2 mM Fo-Met-Ala-Ser, 10 min pre-incubation at 37 °C
T3 construct: made in house
T3 sequence (Q9FUZ2 83-273): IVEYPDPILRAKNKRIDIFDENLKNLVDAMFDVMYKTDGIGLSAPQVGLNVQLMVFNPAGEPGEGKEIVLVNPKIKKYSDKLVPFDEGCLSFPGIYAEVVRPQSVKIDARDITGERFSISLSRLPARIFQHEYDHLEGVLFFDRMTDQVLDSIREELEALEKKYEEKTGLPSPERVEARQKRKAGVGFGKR
Procedure: as §4, with “Enzymatic activity was measured by a spectrophotometric assay where peptide deformylase activity is coupled to that of formate dehydrogenase. The formate” for “The formate”
as §5, §6

AtPDF1B [3] = target: T3, AtPDF1B; experiment: as above; assay type: biochemical; settings: no pre-incubation, assay initiated by addition of enzyme; 100 nM AtPDF1B; 37 °C
E. faecalis EFA 103.214 = experiment: MIC, E. faecalis EFA 103.214; assay type: cell-based; settings: Enterococcus faecalis, EFA103.214, read-out: MIC E. faecalis EFA 103.214
Description: as §1, §2, §3

[4] = test system: E. coli AG100A (AcrAB- derivative); experiment: MIC by microdilution, E. coli AG100A; assay type: cell-based; settings: for MIC: Escherichia coli, 18 h, read-out: MIC AG100A; for MIC AG100A: with PMBN at 1/5 of its MIC, 18 h at 37 °C, average of three assays
Description: as §1, §2, §3

SaPDF [5] = target: T1, SaPDF; experiment: biochemical; settings: for Ki: SaPDF KI, no pre-incubation, assay initiated by addition of enzyme, 40 nM SaPDF, 37 °C; for SaPDF KI/KI*app: enhancement potency (slow tight-binding)
Procedure: as §4, with “Enzymatic activity was measured by a spectrophotometric assay where peptide deformylase activity is coupled to that of formate dehydrogenase. The formate” for “The formate”
as §5, §6

[6] = test system: E. aerogenes Ea298, Ea289 derivative tolC-; experiment: MIC by microdilution, E. aerogenes Ea298; assay type: cell-based, Enterobacter aerogenes; settings: for MIC: Klebsiella aerogenes, 18 h, read-out: MIC Ea298
Description: as §1, §2, §3

[7] = test system: E. aerogenes Ea289, MDR strain; experiment: MIC by microdilution, E. aerogenes Ea289; assay type: cell-based, Enterobacter aerogenes; settings: for MIC Ea289: +PMBN at 1/5 of its MIC, average of three assays; for MIC: Klebsiella aerogenes, 18 h, read-out: MIC Ea289
Description: as §1, §2, §3

[8] = test system: E. aerogenes Ea294, Ea289 derivative AcrAB-; experiment: MIC by microdilution, E. aerogenes Ea294; assay type: cell-based, Enterobacter aerogenes; settings: for MIC Ea294: +PMBN at 1/5 of its MIC, average of three assays; for MIC: Klebsiella aerogenes, 18 h, read-out: MIC Ea294
Description: as §1, §2, §3

[9] = EcPDF KI*app, PDFI pre-incubated with enzyme 10 min at 37 °C, started by 2 mM Fo-Met-Ala-Ser
[10] = EcPDF KI, no pre-incubation, assay initiated by addition of enzyme, 37 °C

T1 sequence (Q8E378 whole entry S2A): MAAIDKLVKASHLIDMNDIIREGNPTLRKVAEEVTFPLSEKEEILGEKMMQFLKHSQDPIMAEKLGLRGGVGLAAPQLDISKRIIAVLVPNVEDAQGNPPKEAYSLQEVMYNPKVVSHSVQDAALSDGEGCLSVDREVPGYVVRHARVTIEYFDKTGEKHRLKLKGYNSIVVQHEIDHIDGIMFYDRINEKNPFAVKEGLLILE
T2 sequence (P0A6K3 whole entry): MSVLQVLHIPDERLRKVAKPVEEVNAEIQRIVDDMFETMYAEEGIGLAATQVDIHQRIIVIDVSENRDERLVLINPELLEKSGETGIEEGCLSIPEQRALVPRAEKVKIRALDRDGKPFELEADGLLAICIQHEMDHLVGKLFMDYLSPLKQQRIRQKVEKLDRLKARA

SMILES: CCCCC(CC(=O)NO)c1nc(Cc2ccc(F)cc2)no1 (centres unmarked) [AT002]
- MIC (S. aureus SA113): > 64 µg/mL
- Ki (SaPDF [1]): 4 ± 0.5 nM
- IC50 (EcPDF): 4 ± 1 nM
- Ki (EcPDF; [9]): 5 ± 2 nM
- Ki (EcPDF; [10]): 31 ± 7 nM
- EcPDF KI/KI*app (EcPDF): 6
- MIC (E. coli AG100): > 64 µg/mL
- MIC AG100 (E. coli AG100): 64 µg/mL
- Ki (AtPDF1B [2]): 53 ± 3 nM
- AtPDF1B KI/KI*app (AtPDF1B [2]): 1
- Ki (AtPDF1B [3]): 58 ± 4 nM
- MIC (E. faecalis EFA 103.214): > 64 µg/mL
- MIC [4]: > 64 µg/mL
- MIC AG100A [4]: 32 µg/mL
- IC50 (SaPDF [5]): 3.5 ± 0.8 nM
- Ki (SaPDF [5]): 13 ± 1 nM

SMILES: CCCCC(CC(=O)NO)c1nc(Cc2ccc(C(F)(F)F)cc2)no1 (centres unmarked) [AT008]
- MIC (S. aureus SA113): > 64 µg/mL
- Ki (SaPDF [1]): 81 ± 5 nM
- IC50 (EcPDF): 14 ± 2 nM
- Ki (EcPDF; [9]): 18 ± 3 nM
- Ki (EcPDF; [10]): 80 ± 10 nM
- EcPDF KI/KI*app (EcPDF): 4
- MIC (E. coli AG100): > 64 µg/mL
- MIC AG100 (E. coli AG100): >64 µg/mL
- Ki (AtPDF1B [2]): 666 ± 29 nM
- AtPDF1B KI/KI*app (AtPDF1B [2]): 1
- Ki (AtPDF1B [3]): 909 ± 78 nM
- MIC (E. faecalis EFA 103.214): > 64 µg/mL
- MIC [4]: > 64 µg/mL
- MIC AG100A [4]: 16 µg/mL
- IC50 (SaPDF [5]): 25 ± 2 nM
- Ki (SaPDF [5]): 75 ± 4 nM
- SaPDF KI/KI*app (SaPDF [5]): 1

SMILES: O=C(C[C@@H](CC1CCCC1)c1nc(Cc2coc3ccccc23)no1)NO [AT019]
- Ki (SaPDF [1]): 7.5 ± 2 nM
- IC50 (EcPDF): 6 ± 1 nM
- Ki (EcPDF; [9]): 1.1 ± 0.3 nM
- Ki (EcPDF; [10]): 76 ± 4 nM
- EcPDF KI/KI*app (EcPDF): 69
- MIC (E. coli AG100): > 64 µg/mL
- MIC AG100 (E. coli AG100): 2 µg/mL
- IC50 (AtPDF1B [2]): 77 ± 5 nM
- Ki (AtPDF1B [2]): 54 ± 2 nM
- AtPDF1B KI/KI*app (AtPDF1B [2]): 5
- Ki (AtPDF1B [3]): 263 ± 26 nM
- MIC [6]: 64 µg/mL
- MIC [4]: 16 µg/mL
- MIC AG100A [4]: 0.5 µg/mL
- IC50 (SaPDF [5]): 7 ± 1 nM
- Ki (SaPDF [5]): 65 ± 6 nM
- MIC Ea289 [7]: 16 µg/mL
- MIC [7]: > 128 µg/mL
- MIC Ea294 [8]: 2 µg/mL
- MIC [8]: 128 µg/mL

SMILES: CCCCC[C@H](CC(=O)NO)C(=O)N[C@H](C(=O)N1CCC[C@H]1CO)C(C)C [Actinonin, actinonin, reference compound]
- Ki (SaPDF [1]): 1 ± 0.1 nM
- MIC (E. coli AG100): 128 µg/mL
- MIC AG100 (E. coli AG100): 4 µg/mL
- IC50 (AtPDF1B [2]): 7.5 ± 1.8 nM
- Ki (AtPDF1B [2]): 3.5 ± 0.3 nM
- Ki (AtPDF1B [3]): 82 ± 10 nM
- MIC Ea298 ([6]; +PMBN at 1/5 of its MIC, average of three assays): 1 µg/mL
- MIC [6]: 32 µg/mL
- MIC [4]: 1 µg/mL
- MIC AG100A [4]: 0.25 µg/mL
- IC50 (SaPDF [5]): 3 ± 0.9 nM
- Ki (SaPDF [5]): 64 ± 5 nM
- MIC Ea289 [7]: 32 µg/mL
- MIC [7]: > 64 µg/mL
- MIC Ea294 [8]: 4 µg/mL
- MIC [8]: 64 µg/mL

SMILES: O=C(Cc1cn(Cc2ccccc2)c2ccc(Br)cc12)NO [SMP195]
- MIC (S. aureus SA113): 4 µg/mL
- Ki (SaPDF [1]): 250 ± 17 nM
- IC50 (EcPDF): 17 ± 4 nM
- Ki (EcPDF; [9]): 20 ± 3 nM
- Ki (EcPDF; [10]): 29 ± 4 nM
- EcPDF KI/KI*app (EcPDF): 1
- IC50 (AtPDF1B [2]): 400 ± 33 nM
- Ki (AtPDF1B [2]): 833 ± 53 nM
- AtPDF1B KI/KI*app (AtPDF1B [2]): 1
- Ki (AtPDF1B [3]): 909 ± 118 nM
- MIC (E. faecalis EFA 103.214): 16 µg/mL
- IC50 (SaPDF [5]): 110 ± 10 nM
- Ki (SaPDF [5]): 285 ± 18 nM
- SaPDF KI/KI*app (SaPDF [5]): 1

SMILES: O=C(Cn1cc(Cc2ccccc2)c2cc(Br)ccc21)NO [SMP289]
- MIC (S. aureus SA113): 4 µg/mL
- Ki (SaPDF [1]): 714 ± 72 nM
- IC50 (EcPDF): 480 ± 30 nM
- Ki (EcPDF; [9]): 625 ± 75 nM
- Ki (EcPDF; [10]): 769 ± 30 nM
- EcPDF KI/KI*app (EcPDF): 1
- MIC (E. coli AG100): > 64 µg/mL
- MIC AG100 (E. coli AG100): 8 µg/mL
- IC50 (AtPDF1B [2]): 703 ± 47 nM
- Ki (AtPDF1B [2]): 1430 nM
- AtPDF1B KI/KI*app (AtPDF1B [2]): 1
- Ki (AtPDF1B [3]): 1000 ± 78 nM
- MIC (E. faecalis EFA 103.214): 16 µg/mL
- MIC [4]: > 64 µg/mL
- MIC AG100A [4]: 4 µg/mL
- IC50 (SaPDF [5]): 360 ± 21 nM
- Ki (SaPDF [5]): 909 ± 64 nM
- SaPDF KI/KI*app (SaPDF [5]): 1
